Experimental data reported in patent US20020068749A1, “AIDS REMEDY” (priority 1996, published 2002).
Values after ≈ are worked out from the molar mass of the structure shown.

Experiments:
[1] = tested on: Indinavir resistant strain; test: Anti-virus activity IC50 against Indinavir resistant strain; type: cell-based, HIV; settings: Human immunodeficiency virus 1, read-out: Anti-virus activity IC50
Excerpt: (§1) A drug resistant strain virus is a resistance strains induced in a cell culture system in vitro while maintaining infection in the presence of each medicament through generations.

[2] = Change of concentration in plasma over time after oral administration to rats (KNI-272 with Indinavir or Nelfinavir); settings: for AUC: rat, plasma, po
Description: In this example, the change in concentration in blood of KNI-272 over time when the KNI-272 was orally administered in combination with Indinavir, i.e. the change in the concentration of a non-binding type of drug in plasma over time, was measured to evaluate the effect of drug interactions on fluctuations of dynamics in vivo. A commercially available Indinavir for oral administration, CRIXIVAN™ (manufactured by Merck), was used after dissolving Indinavir sulfate in a prescribed concentration. As KNI-272, a suspension prepared from a fine powder of KNI-272 was used. Rats were used as test animals. […] In addition, each compound was individually administered to control groups to evaluate the dynamics in vivo. The animals were fasted for 16 hours before administration. The measurement of the change in the non-binding drug concentration in plasma over time was carried out according to a conventional method using blood samples collected from the test animals.
The method of evaluation was applied to the above-mentioned system of Indinavir and KNI-272 was followed. […] In this example, a dosage of 50 mg/kg was selected for both Nelfinavir and KNI-272.

[3] = tested on: IIIB strain of HIV-1 in CEM-SS cells; test: Measurement of anti-HIV activity in vitro (XTT method, control of cellular denaturalization due to HIV infection); type: cell-based
Description: An increase in the synergistic anti-virus activity in the combined use of KNI-272 and Saquinavir is shown by a specific experimental example. The anti-virus activity was evaluated as the capability of controlling generation of infectious virus particles in vitro. The effect of cell extinction to HIV infection was calculated when Saquinavir methanesulfonate and KNI-272 respectively or both were added to a culture liquid, to determine the concentration region where a synergistic increase in the anti-virus activity in the combined use of the two compounds is conspicuous. Measurement of the anti-virus activity in vitro was carried out according to the following procedure. In the description hereinafter the concentration of methanesulfonate is indicated as the concentration converted into Saquinavir. The concentration of KNI-272 is indicated as the concentration of the compound itself.
A IIIB strain of HIV-1 was used as an HIV wild strain and CEM-SS cells were used as infected cells in the above-mentioned culture. The amount of HIV sufficient to kill all CEM-SS cells 6 days after inoculation (multiplicy of infection, MOI of 0.01-0.05) was determined and this amount of HIV was added. A 96 well micro-titre plate was used to inoculate 5×10^3 CEM-SS cells per well in this case. At the time of inoculation of cells, a test compound was added to the culture medium to a prescribed concentration. Three specimens were used for each test level. The following controls were used (1) as calorimetric controls: a sample with only a test compound added to the culture medium, (2) as a cytotoxic control for a test compound: a sample with only cells and the test compound added to the culture medium, (3) as a virus control: a sample with the cells inoculated with only a virus, and (4) as a cell survival control, a sample consisting only of cells. In addition, AZT and DDC which are compounds with a known anti-HIV activity were used as positive controls. After the cells were added, they were inoculated with the infecting virus, followed by incubation at 37° C.for 6 days. Cellular denaturalization due to HIV infection was colorimetrically measured for each well. Employing the colorimetry, was the metabolism from XTT Tetrazolium to XTT Formazan was evaluated. This colorimetry is called the XTT method (see Weislow et al., Journal of the National Cancer Institute 81, 577-586 (1989)). After the above-mentioned incubation, a prescribed amount of XTT was added to each well and incubation was continued for a further four hours at 37° C. to measure the amount of XTT Formazan produced by metabolism by means of calorimetric quantitation.
The anti-HIV activity for each experimental level was calculated by comparing the number of undenatured cells measured by the above-mentioned assay with the corresponding number of cells in the four control groups. Specifically, the proportion of cellular denaturalization due to HIV infection controlled by the addition of the test compound was calculated. A systematic deviation between the several experiments was corrected based on the results of AZT and ddC used as positive controls.
In this example, 0 ng/ml and several concentrations in the range of 0.625-10.0 ng/ml of Saquinavir methanesulfonate and 0 ng/ml and several concentrations in the range of 0.313-80.0 ng/ml of KNI-272 were used. The results (anti-HIV activities) obtained under these conditions using either one of these medicaments or both medicaments in combination are shown in Table 1.
With regard to this concentration region wherein no synergistic increase can be seemingly identified, a similar evaluation was carried out adding a larger amount of HIV to qualitatively evaluate the presence or absence of a synergistic effect. […] This affords qualitative results rather than quantitative results.
An increase in the synergistic anti-virus activity in the combined use of KNI-272 and Ritonavir is shown by a specific experimental example. […]

KNI-272 resistant strain = test: microbe, parasite or virus in culture; type: cell-based, HIV; settings: Human immunodeficiency virus 1, read-out: Anti-virus activity IC50
Excerpt: as §1

HIV Wild strain (IIIB) = test: Anti-virus activity IC50 against wild strain; type: cell-based; settings: Human immunodeficiency virus 1, IIIB, read-out: Anti-virus activity IC50
[4] = Indinavir 40 mg/kg + KNI-272 40 mg/kg p.o. at the same time

For `CSC[C@H](NC(=O)COc1cccc2cnccc12)C(=O)N[C@@H](Cc1ccccc1)[C@H](O)C(=O)N1CSC[C@H]1C(=O)NC(C)(C)C` [KNI-272, (R)-N-1,1-dimethylethyl-3-[(2S,3S)-2-hydroxy-3-[(R)-2-(5-isoquinolyloxyacetyl)amino-3-methylthiopropanoyl]amino-4-phenylbutanoyl]-1,3-thiazolidine-4-carboxyamide], the IC50 [1] was 0.01 µg/mL (≈ 0.015 µM), the “increase in maximum concentration value in blood (Cmax) of KNI-272” value [2, 4] was “about twice” and the “increase in the value of AUC of KNI-272” value [2, 4] was “about a six-times increase”. The “increase in AUC value of KNI-272” value ([2]; KNI-272 10 mg/kg one hour after Indinavir 90 mg/kg) was “about 10 times”, the “decrease in the maximum concentration value in blood Cmax of KNI-272 (to fraction)” value ([2]; KNI-272 50 mg/kg with Nelfinavir 50 mg/kg vs alone) was “about ¼” and the “increase in the maximum concentration value in blood (Cmax) of KNI-272” value ([2]; KNI-272 administered one hour after Indinavir) was 3 times. The AUC ([2]; 10 mg/kg, AUC value of KNI-272, KNI-272 10 mg/kg p.o., no Indinavir) was 660 ng·h/mL, the AUC ([2]; 40 mg/kg, AUC value of KNI-272, KNI-272 40 mg/kg p.o. individually) was 4900 ng·h/mL and the AUC ([2]; 40 mg/kg, AUC value of KNI-272, KNI-272 40 mg/kg p.o. together with Indinavir 40 mg/kg) was 29200 ng·h/mL. The AUC ([2]; 50 mg/kg, AUC value for KNI-272, KNI-272 50 mg/kg p.o. only) was 9170 ng·h/mL, the AUC ([2]; 50 mg/kg, AUC value for KNI-272, KNI-272 50 mg/kg p.o. simultaneously with Nelfinavir 50 mg/kg) was 10300 ng·h/mL and the AUC ([2]; AUC value of KNI-272, KNI-272 10 mg/kg p.o. one hour after Indinavir 90 mg/kg) was 6900 ng·h/mL. For the same compound, the “Anti-HIV activity (%)” value ([3]; KNI-272 0.313 ng/ml alone (Table 1)) was 4.8%, the “Anti-HIV activity (%)” value ([3]; KNI-272 0.313 ng/ml alone (Table 4)) was 5.6% and the “Anti-HIV activity (%)” value ([3]; KNI-272 0.625 ng/ml alone (Table 1)) was 0.0%. For the same compound, the “Anti-HIV activity (%)” value ([3]; KNI-272 0.625 ng/ml alone (Table 4)) was 2.1%, the “Anti-HIV activity (%)” value ([3]; KNI-272 1.25 ng/ml alone (Table 1)) was 1.2% and the “Anti-HIV activity (%)” value ([3]; KNI-272 1.25 ng/ml alone (Table 4)) was 3.8%. For the same compound, the “Anti-HIV activity (%)” value ([3]; KNI-272 2.5 ng/ml alone (Table 1)) was 11.0%, the “Anti-HIV activity (%)” value ([3]; KNI-272 2.5 ng/ml alone (Table 4)) was 2.2% and the “Anti-HIV activity (%)” value ([3]; KNI-272 5.0 ng/ml alone (Table 1)) was 8.5%. For the same compound, the “Anti-HIV activity (%)” value ([3]; KNI-272 5.0 ng/ml alone (Table 4)) was 0.0%, the “Anti-HIV activity (%)” value ([3]; KNI-272 10.0 ng/ml alone (Table 1)) was 13.1% and the “Anti-HIV activity (%)” value ([3]; KNI-272 10.0 ng/ml alone (Table 4)) was 2.5%. For the same compound, the “Anti-HIV activity (%)” value ([3]; KNI-272 20.0 ng/ml alone (Table 1)) was 15.7%, the “Anti-HIV activity (%)” value ([3]; KNI-272 20.0 ng/ml alone (Table 4)) was 12.8% and the “anti-HIV activity as fraction of that of combined use of 10.0 ng/ml Saquinavir methanesulfonate and 20.0 ng/ml KNI-272” value ([3]; KNI-272 30.0 ng/ml alone) was “⅓”. The “Anti-HIV activity (%)” value ([3]; KNI-272 40.0 ng/ml alone (Table 1)) was 27.6%, the “Anti-HIV activity (%)” value ([3]; KNI-272 40.0 ng/ml alone (Table 4)) was 42.8% and the “anti-HIV activity as fraction of that of combined use of 20.0 ng/ml Ritonavir and 40.0 ng/ml KNI-272” value ([3]; KNI-272 60.0 ng/ml alone) was “about ¾”. The “Anti-HIV activity (%)” value ([3]; KNI-272 80.0 ng/ml alone (Table 1)) was 65.7%, the “Anti-HIV activity (%)” value ([3]; KNI-272 80.0 ng/ml alone (Table 4)) was 100.0% and the IC50 (KNI-272 resistant strain) was 0.32 µg/mL (≈ 0.479 µM). It also gave an IC50 (HIV Wild strain (IIIB)) of 0.007 µg/mL (≈ 0.0105 µM).
